Reference: patent publication US9993001B2, “Herbicidal composition” (ISHIHARA SANGYO KAISHA, LTD., priority 2014, dated 2018)

Legend:
Type in all cases: in vivo
[1] = system: annual bluegrass (Poa annua L.); experiment: Test Example 19: pot, soil treatment, metobromuron + chlorpropham; details: soil, read-out: Growth inhibition rate of annual bluegrass (%) Measured value
[2] = system: barnyardgrass (Echinochloa crus-qalli L.); experiment: Test Example 1: soybean field, soil treatment, metobromuron + chlorpropham; details: soil, read-out: Growth inhibition rate of barnyardgrass (%) Measured value
Excerpt: When the herbicidal activity in a case where two active ingredients are combined, is larger than the simple sum of the respective herbicidal activities of the two active ingredients (the expected activity), it is called a synergistic effect. The activity expected by the combination of two active ingredients can be calculated as follows (Colby S. R., “Weed”, vol. 15, p. 20-22, 1967). E=α+β−(α×β[…]) where α: growth inhibition rate when treated with x (g/ha) of herbicide X, • β: growth inhibition rate when treated with y (g/ha) of herbicide Y, • E: growth inhibition rate expected when treated with x (g/ha) of herbicide X and y (g/ha) of herbicide Y. […]
On the 19th day after treatment, the state of growth of barnyardgrass was visually observed and evaluated in accordance with the following standards. The growth inhibition rate (%) [measured value] and the growth inhibition rate (%) [calculated value] calculated by the Colby's method, are shown in Table 2. […]

[3] = system: redroot pigweed (Amaranthus retroflexus L.); experiment: Test Example 9: corn field, soil treatment, metobromuron + S-metolachlor; details: soil, read-out: Growth inhibition rate of redroot pigweed (%) Measured value
Excerpt: (§1) When the herbicidal activity in a case where two active ingredients are combined, is larger than the simple sum of the respective herbicidal activities of the two active ingredients (the expected activity), it is called a synergistic effect. The activity expected by the combination of two active ingredients can be calculated as follows (Colby S. R., “Weed”, vol. 15, p. 20-22, 1967). E=α+β−(α×β[…]) where α: growth inhibition rate when treated with x (g/ha) of herbicide X, • β: growth inhibition rate when treated with y (g/ha) of herbicide Y, • E: growth inhibition rate expected when treated with x (g/ha) of herbicide X and y (g/ha) of herbicide Y.
(§2) On the 19th day after treatment, the state of growth of barnyardgrass was visually observed and evaluated in accordance with the following standards. The growth inhibition rate (%) [measured value] and the growth inhibition rate (%) [calculated value] calculated by the Colby's method, are shown in Table 2.
(§3) Growth inhibition rate (%)=inhibition rate) (%) of 0 (equivalent to the non-treated area) to 100 (complete kill) […]
On the 49th day after treatment, the state of growth of redroot pigweed (Amaranthus retroflexus L.) which occurred naturally, was visually observed and evaluated in the same manner as in Test Example 1.

[4] = system: Oriental lady's thumb (Persicaria longiseta); experiment: Test Example 7: common bean field, soil treatment, metobromuron + trifluralin; details: soil, read-out: Growth inhibition rate of Oriental lady's thumb (%) Measured value
Excerpt: as §1, §2, §3
On the 49th day after treatment, the state of growth of Oriental lady's thumb (Persicaria longiseta) which occurred naturally, was visually observed and evaluated in the same manner as in Test Example 1.

[5] = system: common chickweed (Stellaria media L.); experiment: Test Example 25: pot, soil treatment, metobromuron + trifluralin; details: soil, read-out: Growth inhibition rate of common chickweed (%) Measured value
[6] = system: large crabgrass (Diqitaria sanquinalis L.); experiment: Test Example 22: pot, soil treatment, metobromuron + prometryn; details: Digitaria sanguinalis, soil, read-out: Growth inhibition rate of large crabgrass (%) Measured value
Excerpt: as §1, §2
(§4) Growth inhibition rate (%)=inhibition rate) (%) of 0 (equivalent to the non-treated area) to 100 (complete kill)
(§5) Soil was put into a 1/300,000 ha pot, and seeds of barnyardgrass (Echinochloa crus-qalli L.) were sown. On the day after seeding, predetermined amounts of SC containing metobromuron as active ingredient (same as in Test Example 1) and WP containing prometryn as active ingredient (trade name: Gesagard 50, manufactured by Nippon Kayaku Co., Ltd.) were diluted with water corresponding to 1,000 L per hectare and applied for soil treatment.
(§6) On the 21st day after treatment, the state of growth of barnyardgrass was visually observed and evaluated in the same manner as in Test Example 1.
The test was carried out in the same manner as in Test Example 21 except that barnyardgrass (Echinochloa crus-qalli L.) was changed to large crabgrass (Diqitaria sanquinalis L.), to obtain the results as shown in Table 23.

[7] = system: Nepalese Smartweed (Persicaria nepalensis (Meisn.) H. Gross); experiment: Test Example 6: adzuki bean field, soil treatment, metobromuron + S-metolachlor; details: soil, read-out: Growth inhibition rate of Nepalese Smartweed (%) Measured value
Excerpt: as §1, §2, §4
In an adzuki bean agricultural field (9.6 square meters per one test section), predetermined amounts of SC containing metobromuron as active ingredient (same as in Test Example 1) and EC containing S-metolachlor as active ingredient (same as in Test Example 2) were diluted with water corresponding to 1,000 L per hectare and applied for soil treatment, prior to germination of adzuki bean and weeds.
On the 39th day after treatment, the state of growth of Nepalese Smartweed (Persicaria nepalensis (Meisn.) H. Gross) which occurred naturally, was visually observed and evaluated in the same manner as in Test Example 1.

polygonaceae weeds = experiment: Test Example 10: corn field, soil treatment, metobromuron + pendimethalin; details: soil, read-out: Growth inhibition rate of Polygonaceae weeds (%) Measured value
Excerpt: as §1, §2, §3
On the 49th day after treatment, the state of growth of polygonaceae weeds which occurred naturally, was visually observed and evaluated in the same manner as in Test Example 1, The results are shown in Table 11.

[8] = system: giant foxtail (Setaria faberi Herrm.); experiment: Test Example 16: pot, soil treatment, metobromuron + chlorpropham; details: soil, read-out: Growth inhibition rate of giant foxtail (%) Measured value
Excerpt: as §1, §2, §4
as §5, with “crus-galli” for “crus-qalli”, “EC” for “WP”, “chlorpropham” for “prometryn”, “(same as in Test Example 1)” for “(trade name: Gesagard 50, manufactured by Nippon Kayaku Co., Ltd.)”
as §6
The test was carried out in the same manner as in Test Example 15 except that barnyardgrass (Echinochloa crus-galli L.) was changed to giant foxtail (Setaria faberi Herrm.), to obtain the results as shown in Table 17.

## CON(C)C(=O)Nc1ccc(Br)cc1 [Metobromuron, 3-(4-bromophenyl)-1-methoxy-1-methylurea]
[1]
  inhibition at 375 g/ha: 50%
[2]
  inhibition at 1000 g/ha: 58%
[3]
  inhibition at 1000 g/ha: 25%
[4]
  inhibition at 1500 g/ha: 10%
[5]
  inhibition at 250 g/ha: 73%
[6]
  inhibition at 750 g/ha: 33%
  inhibition at 1000 g/ha: 50%
[7]
  inhibition at 1000 g/ha: 35%
  inhibition at 1500 g/ha: 40%
Polygonaceae weeds
  inhibition at 1000 g/ha: 30%
[8]
  inhibition at 1000 g/ha: 78%
